In PubChem BioAssay (NCI) one finds TGI data, which are given here for 10 molecules.

Holding throughout (assay): DTP human tumour cell line panel, 48 h
In experiment [1] the test system is HOP-62 NSCLC.
Experiment [2] relates to OVCAR-5 ovarian.
The test system of experiment [3] is NCI-H23 lung.
Experiment [4] relates to SNB-75 CNS.
Experiment [5] concerns UACC-257 melanoma.
Experiment [6] has as its system 786-0 renal.
For experiment [7], the system named is PC-3 prostate.
Experiment [8] deals with COLO 205 colon.
Experiment [9] concerns HCC-2998 colon.
Experiment [10] relates to UACC-62 melanoma.
The test system of experiment [11] is CCRF-CEM leukemia.
Experiment [12] concerns SN12C renal.
Experiment [13] deals with A549 NSCLC.
Experiment [14] has as its system MDA-N.
Experiment [15] deals with MOLT-4 leukemia.

Each structure is given as a SMILES string.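 A five-concentration, 48-hour dose response in 96-well plates underlies each endpoint, interpolated linearly between surrounding concentrations. TGI marks complete inhibition of growth.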 A value given as a limit tells only on which side of the number the result lay.

`N#Cc1cnn2c1n[n+]([O-])c1ccc(Cl)cc12`: the total growth inhibition concentration (TGI) (commonly the concentration giving total growth inhibition) in [1] is 38.6 µM; in [2] it was greater than 76.8 µM; in experiment [3] it was 12.2 µM; in [4], 15.4 µM; in experiment [5], 23 µM; in experiment [6] it was greater than 100 µM. Moreover, the TGI in experiment [7] amounted to 32.1 µM; in experiment [8], 31.7 µM; in experiment [9], 3.46 µM; in [10], 9.09 µM; in experiment [11] it was 4.34 µM; in experiment [12] it was 20.7 µM. Moreover, the TGI is greater than 79.8 µM in experiment [13], 22.7 µM in experiment [14] and 17.6 µM in [15].
Consider `O=C1C(NCCc2cc(Br)c(O)c(Br)c2)=CC(=O)c2ncccc21`, for which the TGI came out at 9.99 µM in experiment [1]; 20.2 µM in experiment [2]; 2.98 µM in experiment [3]; 5.34 µM in experiment [4]; 7.73 µM in [5]; 34.4 µM in experiment [6]. Besides, the TGI in [7] was greater than 100 µM; in experiment [8] it was 19.2 µM; in [9], 26 µM; in experiment [10], 3.51 µM; in experiment [11], 23.5 µM; in experiment [12] it was 14.7 µM. For the same molecule, the TGI amounted to 9.89 µM in experiment [13], 3.34 µM in [14] and 24.1 µM in [15].
Regarding `C[N+](C)(C)CC1Cc2ccccc2C1=O` (centres undefined), the total growth inhibition concentration (TGI) in experiment [1], in experiment [2], in experiment [3], in [4], in experiment [5] and in [6] was greater than 10 µM in each case. Moreover, the TGI was greater than 10 µM in [7]; greater than 6.59 µM in experiment [8]; greater than 10 µM in [9]; greater than 10 µM in experiment [10]; 4.22 µM in [11]; greater than 10 µM in [12]. Also, the figures for the concentration for total growth inhibition (TGI) in experiment [13], in experiment [14] and in [15] were greater than 10 µM, greater than 10 µM and 4.95 µM, respectively.
`N#C/C(=C\c1ccc(Cl)cc1)c1nc2ccccc2c(=O)[nH]1`: the TGI was greater than 100 µM in experiment [1]; greater than 100 µM in [2]; 61.7 µM in experiment [4]; greater than 100 µM in experiment [5]; greater than 100 µM in [6]; greater than 100 µM in [7]. For the same molecule, the TGI in experiment [8], in [9], in experiment [10], in experiment [11], in experiment [12] and in [13] was greater than 100 µM in each case. Further, the TGI in experiment [14] and in experiment [15] was greater than 100 µM each time.
For the molecule `COC(=O)n1c(=O)nc2c3c(ncn21)Oc1c(c(-c2ccccc2)nn1-c1ccccc1)C3c1ccc(Cl)cc1` (centres undefined), the concentration for total growth inhibition (TGI) is 3.09 µM in [1]; 2.58 µM in experiment [2]; 3.96 µM in experiment [3]; 7.69 µM in [4]; 3.76 µM in experiment [5]; 2.81 µM in experiment [6]. Besides, the TGI was determined as 2.94 µM in experiment [7]; 2.76 µM in experiment [8]; 2.72 µM in experiment [9]; 3.6 µM in experiment [10]; 3.27 µM in [11]; 3.1 µM in experiment [12]. For the same molecule, the figures for the TGI in experiment [13] and in experiment [14] were 3.15 µM and 3.01 µM, respectively.
Take `Cc1ccc(-c2c(C#N)c(-c3ccc(N(C)C)cc3)c(C#N)c(=O)n2NS(=O)(=O)c2ccccc2)cc1`: the TGI in [1], in [2], in experiment [4], in [5], in experiment [6] and in experiment [7] was greater than 100 µM throughout. Moreover, the TGI in experiment [8] is greater than 100 µM; in [9], greater than 100 µM; in [10], greater than 100 µM; in [11] it was 96.3 µM; in experiment [12], greater than 100 µM; in experiment [13] it was greater than 100 µM. In addition, the TGI in [14] was greater than 100 µM; in [15] it was 52.8 µM.
Regarding `N#Cc1c(-c2ccccc2)c(C#N)c(=O)n(NS(=O)(=O)c2ccccc2)c1O`, the TGI in experiment [1], in experiment [2], in experiment [4], in experiment [5], in experiment [6] and in experiment [7] was greater than 100 µM throughout. The TGI in experiment [8], in [9], in experiment [10], in experiment [11], in experiment [12] and in [13] was greater than 100 µM throughout. The TGI in [14] and in experiment [15] was greater than 100 µM in each case.
With `COc1ccc2oc(=N)c(C(N)=S)cc2c1`, the total growth inhibition concentration (TGI) in experiment [1] was greater than 100 µM; in experiment [2] it was greater than 100 µM; in [4] it was 74.8 µM; in experiment [5], 93.4 µM; in experiment [6], greater than 100 µM; in [7], 93.7 µM. The TGI is greater than 100 µM in experiment [8]; 33.6 µM in experiment [9]; 34 µM in experiment [10]; greater than 100 µM in experiment [11]; 82.8 µM in experiment [12]; greater than 100 µM in experiment [13]. Further, the figures for the TGI in experiment [14] and in [15] were 67.5 µM and greater than 100 µM, respectively.
For the molecule `CN(CCO)CC(=O)CC(O)(C(F)(F)F)C(F)(F)F`, the TGI in experiment [2] is greater than 100 µM; in experiment [3], 60.2 µM; in [4], 51.7 µM; in [5], greater than 100 µM; in [6], greater than 100 µM; in experiment [7], 82.8 µM. For the same molecule, the TGI was greater than 100 µM in experiment [8]; greater than 100 µM in [9]; greater than 100 µM in [10]; 91.9 µM in experiment [11]; greater than 100 µM in [13]; greater than 100 µM in [14]. Also, the TGI in experiment [15] was greater than 100 µM.
Take `C1CSCC2(COC2)CS1`: the TGI in experiment [3], in experiment [4], in experiment [5], in experiment [7], in [8] and in experiment [9] was greater than 100 µM throughout. Further, the TGI in experiment [11], in experiment [12], in [13], in [14] and in [15] was greater than 100 µM in each case.
